Laboratory results taken from patent publication US20240009175A9, “TETRAZOLE DERIVATIVES” (Merck Patent GmbH, priority 2020, published 2024).

What was measured:
ACSS2 = ACSS2 (Homo sapiens (Human), UniProt Q9NR19); test: Cellular assay of 14C acetate incorporation into fatty acids (IC50 ACSS2 cellular lipids); type: cell-based; conditions: HCT-15 cells
Protocol: Cellular Assay of ^14C Acetate Incorporation into Fatty Acids (IC50 ACSS2 Cellular Lipids)
This protocol describes a cellular assay capable to quantify endogenous fatty acid synthesis activity in the human HCT-15 cancer cell line following the incorporation of extracellularly administered radiolabeled ^14C acetate with a scintillation proximity based read out on extracted fatty acids.
HCT-15 cells were grown in RPMI 1640 (Gibco) supplemented with 2 mM glutamine, 1 mM sodium pyruvate 10 mM HEPES and 10% FCS (heat-inactivated) passaged every 2-3 days to remain a subconfluent, vital culture. A working cell bank was prepared with each aliquot containing 1×10^7 viable cells. After thawing, these cells are dilute immediately 1:20 in pre-warmed (37° C.) culture medium. Cells are collected by centrifugation at 200×g for 5 min, and the supernatant is replaced by 30 mL of fresh culture medium per aliquot to obtain a cell suspension containing 350000 cells/ml. From this cell suspension 100 μL are dispersed into each well of a collagen coated 96 well plate, (black, clear bottom, PS, F-bottom, Greiner) and culture for 24 h (37° C., 5% CO2). After incubation the culture medium is removed and the wells are washed once with 100 μL PBS++(supplemented with Mg^2+/Ca^2+, Gibco) and 50 μL assay medium (RPMI 1640+10 mM HEPES) are added to each well. Compounds serial dilutions are prepared from 10 mM stock solutions in DMSO using a fixed dilution factor (usually 1:3). After preparation of the dilution series in DMSO, the individual dilutions are further diluted in the assay medium. This working dilution is prepared such, that the concentration is 7× of the final concentration in the assay. The maximal DMSO concentration in the final assay is 0.1%.
To each well 10 μL compound working dilution or DMSO blank are added and the cells are cultured for 2 h (37° C., 5% CO2). Then 10 μL AlamarBlue reagent (Invitrogen) containing 14 μCi/mL 14C-acetate (Perkin Elmer) are added to each well (70 μl total volume) and cells are again cultured for 2 h. Cell viability is verified by measuring the AlamarBlue fluorescence (Tecan Safire, ex: 544 nm/em: 590 nm). After incubation the culture medium is removed and the wells are carefully washed once with cold 100 μL PBS++. For cell lysis and fatty acid recovery 50 μl 0.1 M NaOH and 0.1% Triton-X100 are added per well. The plate is sealed with PlateLoc (clear peelable heat seal, Agilent) and incubate at 70° C. for 16-24 h. After cooling to room temperature, the plates are centrifuged for 1 min at 1000 rpm and the plate seals are removed. For acidification 150 μL 0.1 M HCl are added to each well, mixed and 150 μL of the mixture are transferred into a 96 well FlashPlate (Perkin Elmer). The plates are sealed with TopSeal-A (Perkin Elmer). To allow for the fatty acid binding to the well surfaces the plates are incubate for 4 h at 70° C. After cooling to room temperature, the plates are centrifuged for 1 min at 1000 rpm and stored for 0.5-2h at room temperature in the dark. Radioactivity from ^14C incorporation into fatty acids in the wells is measured as CPM count in a MicroBeta scintillation counter (Perkin Elmer).

CYP3A4 = test: CYP-induction assay in HepaRG cells, QuantiGene Plex 2.0 (CYP3A4 induction); type: in vitro ADME, human; conditions: 48 hrs; for CYP3A4 (in parentheses: lowest concentration causing at least 2-fold induction): value in parentheses; for CYP3A4 (significant induction above 20% threshold): value outside parentheses
Source text: CYP-Induction Assay in HepaRG Cells with the QuantiGene Plex 2.0 Reagent System (Branched DNA-Assay) from Affymetrix (Thermo Scientific) (CYP3A4 Induction)
The QuantiGene Plex 2.0 assay combines branched DNA (bDNA) signal amplification and multi-analyte profiling beads (xMAP®) technologies to enable the detection and quantitation of multiple RNA targets simultaneously. The xMAP system combines a flow cytometer, fluorescent-dyed microspheres (beads), lasers and digital signal processing to allow multiplexing of up to 100 unique assays within a single sample.
Human HepaRG cells (Thermo Scientific) were thawed and seeded with a density of 0.72E6 cells/ml in a collagen precoated 96-well plate. After an adaption phase of 3 days in first Williams E medium (Gibco+thawing supplement, Thermo Scientific) the medium was changed to second Williams E medium (Gibco+tox supplement, Thermo Scientific). Daily treatment with test substances at 4 concentrations, started between day 3-10 of culturing, was performed with an incubation time of 48 hrs. After 48 hrs the cells were lysed with 100 μl/well (Lysis mixture, Affymetrix diluted 1:2 with Williams E medium, Gibco and addition of 5 μl proteinase K/ml of the mixture, Affymetrix). The QuantiGene Plex 2.0 assay utilizes fluorescent capture beads to trap specific RNA molecules. In order to hybridize and span contiguous sequences of the target RNA, the probe set containing 3 types of synthetic probes (Capture Extenders, Label Extenders, and Blockers) was incubated with samples and beads at 600 rpm at 54° C. for 16-20 h. Signal amplification was mediated by DNA amplification molecules that hybridize to the tails of the label extenders (incubation of the over-night hybridized beads with pre-amplifier and amplifier reagent for 1 h at 50° C. each, washing steps in between). Each amplification unit contains multiple hybridization sites for biotinylated label probes (incubation with label probe reagent for 1 h at 50° C., washing step in between) that bind Streptavidin-conjugated R-Phycoerythrin (SAPE, last incubation step for 30 min at room temp.). After the SAPE incubation, a last washing step with SAPE buffer was performed (120 μl left in wells). The resulting fluorescence signal associated with individual capture beads was detected on a Luminex 200 flow cytometer (parameters: volume 100 μl, timeout 45 sec., DD-gate 5,000-25,000, bead events 50). Signals were reported as median fluorescence intensity (MFI) and were proportional to the number of target RNA molecules present in the sample.
For analysis of results, calculation of mean values of 3 technical replicates as well as the standard deviations (% SD up to 30% acceptable) were carried out. The mean value of the blank was subtracted from the mean value of the sample. As the genes HPRT1 and TFRC are housekeeping genes, they are used to normalize sample mean values [(Sample Mean−Blank)/Housekeeper (Mean−Blank)=normalized value (HPRT1 or TFRC)]. Calculation of the fold-change was performed by dividing normalized sample values by the normalized mean values of the DMSO controls [(Sample Mean−Blank)/Housekeeper (Mean−Blank)=fc; (DMSO Mean−Blank)/Housekeeper (Mean−Blank)].
Experimental data of the compounds shown in Table 1 in the CYP3A4 assay are shown in Table 2 below and given in μM (significant induction above 20% threshold; in parentheses: lowest concentration causing at least 2-fold induction): […]

ACSS2, sequence (Q9NR19 whole entry): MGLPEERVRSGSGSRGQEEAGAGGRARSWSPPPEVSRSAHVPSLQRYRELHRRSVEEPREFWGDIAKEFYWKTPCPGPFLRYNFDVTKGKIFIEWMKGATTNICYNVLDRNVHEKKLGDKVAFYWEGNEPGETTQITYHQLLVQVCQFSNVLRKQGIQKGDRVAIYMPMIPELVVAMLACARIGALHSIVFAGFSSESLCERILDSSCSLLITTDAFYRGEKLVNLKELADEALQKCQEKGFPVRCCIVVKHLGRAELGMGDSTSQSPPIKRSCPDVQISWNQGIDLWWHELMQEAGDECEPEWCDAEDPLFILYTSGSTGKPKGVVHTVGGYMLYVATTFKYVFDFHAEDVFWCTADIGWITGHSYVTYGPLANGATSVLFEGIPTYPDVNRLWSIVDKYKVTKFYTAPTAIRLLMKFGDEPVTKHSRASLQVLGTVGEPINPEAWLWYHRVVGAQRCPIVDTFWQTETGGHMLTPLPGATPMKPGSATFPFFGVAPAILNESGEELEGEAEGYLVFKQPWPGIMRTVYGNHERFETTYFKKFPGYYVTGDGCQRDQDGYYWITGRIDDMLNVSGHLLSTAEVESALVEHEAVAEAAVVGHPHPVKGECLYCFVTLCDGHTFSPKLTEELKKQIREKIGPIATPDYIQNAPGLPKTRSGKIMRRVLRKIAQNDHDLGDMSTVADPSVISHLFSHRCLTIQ

Compound | IC50 (ACSS2) | CYP3A4 (in parentheses: lowest concentration causing at least 2-fold induction) (CYP3A4) | CYP3A4 (significant induction above 20% threshold) (CYP3A4)
CCc1c(C(O)(c2ccccc2)c2ccccc2)nn2cc(Cl)c(-c3nnn[nH]3)cc12 [Compound 21, [6-Chloro-3-ethyl-5-(1H-tetrazol-5-yl)-pyrazolo[1,5-a]pyridin-2-yl]-diphenyl-methanol] | 1 to 10 nM | 50 µM | 2.6 µM
CCn1c(C(O)(c2ccccc2)c2ccccc2)nc2nc(Cl)c(-c3nnn[nH]3)cc21 [Compound 51, [5-chloro-1-ethyl-6-(1H-1,2,3,4-tetrazol-5-yl)-1H-imidazo[4,5-b]pyridin-2-yl]diphenylmethanol] | 10 to 100 nM | 50 µM | 3.1 µM
CCn1c(C(O)(c2ccccc2)c2ccccc2)nc2nc(OC)c(-c3nnn[nH]3)cc21 [Compound 58, [1-ethyl-5-methoxy-6-(1H-1,2,3,4-tetrazol-5-yl)-1H-imidazo[4,5-b]pyridin-2-yl]diphenylmethanol] | 0.01 to 1 nM | 50 µM | 3.8 µM
CCn1c(C(O)(c2ccccc2F)c2ccccc2F)nc2nc(C)c(-c3nnn[nH]3)cc21 [Compound 59, [1-ethyl-5-methyl-6-(1H-1,2,3,4-tetrazol-5-yl)-1H-imidazo[4,5-b]pyridin-2-yl]bis(2-fluorophenyl)methanol] | 10 to 100 nM | 5 µM | 13.4 µM
CCn1c(C(O)(c2ccccc2)c2ccccc2)nc2ccc(C(=O)NC[C@@H](C)O)cc21 [Reference Compound, 3-Ethyl-2-[hydroxy(diphenyl)methyl]-N-[(2R)-2-hydroxypropyl]benzimidazole-5-carboxamide, reference compound] | 1 to 10 nM | 0.15 µM | 4.1 µM
